Positions count from the first letter of the chain named.
What was measured:
Experiment in all cases: α-Gal A activity in lysates of transfected HEK-293 cells ± migalastat (HEK assay)
Assay type in all cases: cell-based
[1] = target: T1, α-Gal A mutant form G360R (Homo sapiens, UniProt P06280, G360R)
T1 construct: expressed in transfected cells; host or cells: HEK-293
T1 sequence (P06280 32-429 G360R): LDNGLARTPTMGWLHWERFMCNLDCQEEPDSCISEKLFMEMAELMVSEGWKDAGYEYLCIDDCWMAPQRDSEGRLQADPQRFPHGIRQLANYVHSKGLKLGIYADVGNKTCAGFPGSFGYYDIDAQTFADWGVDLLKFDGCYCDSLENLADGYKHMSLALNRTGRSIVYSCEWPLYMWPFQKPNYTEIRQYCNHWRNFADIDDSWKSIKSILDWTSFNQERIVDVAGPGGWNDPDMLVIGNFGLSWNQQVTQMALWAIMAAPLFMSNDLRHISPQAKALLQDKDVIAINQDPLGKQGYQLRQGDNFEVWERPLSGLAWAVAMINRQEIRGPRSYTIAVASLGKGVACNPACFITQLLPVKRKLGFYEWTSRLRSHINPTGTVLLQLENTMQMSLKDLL
Summary of the method: (§1)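 Activity is reported as nmol of free 4-MU released per mg protein per hour (nmol/mg/hr).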

[2] = target: T2, α-Gal A mutant form I133F (Homo sapiens, UniProt P06280, I133F)
T2 construct: expressed in transfected cells; host or cells: HEK-293
T2 sequence (P06280 32-429 I133F): T1 sequence (P06280 32-429 G360R) with I102F, R329G
Summary of the method: as §1

[3] = target: T3, α-Gal A mutant form I303V (Homo sapiens, UniProt P06280, I303V)
T3 construct: expressed in transfected cells; host or cells: HEK-293
T3 sequence (P06280 32-429 I303V): T1 sequence (P06280 32-429 G360R) with I272V, R329G
Summary of the method: as §1

[4] = target: T4, α-Gal A mutant form L394P (Homo sapiens, UniProt P06280, L394P)
T4 construct: expressed in transfected cells; host or cells: HEK-293
T4 sequence (P06280 32-429 L394P): T1 sequence (P06280 32-429 G360R) with R329G, L363P
Summary of the method: as §1

[5] = target: T5, α-Gal A mutant form P259S (Homo sapiens, UniProt P06280, P259S)
T5 construct: expressed in transfected cells; host or cells: HEK-293
T5 sequence (P06280 32-429 P259S): T1 sequence (P06280 32-429 G360R) with P228S, R329G
Summary of the method: as §1

[6] = 10 μM migalastat minus baseline
[7] = HEK-293 lysates, 10 μM migalastat 5 days, mean ± SEM

Absolute increase (% WT) [1, 6]: 3 % WT
Relative increase ([1]; 10 μM migalastat ÷ baseline): 3.65
10 μM migalastat α-Gal A activity [1, 7]: 1418 ± 93 nmol/mg/h
10 μM migalastat α-Gal A activity (% WT) [1, 7]: 4.0 ± 0.3 % WT
Absolute increase (% WT) [2, 6]: 3.1 % WT
Relative increase ([2]; 10 μM migalastat ÷ baseline): 5.27
10 μM migalastat α-Gal A activity [2, 7]: 1542 ± 154 nmol/mg/h
10 μM migalastat α-Gal A activity (% WT) [2, 7]: 3.8 ± 0.3 % WT
Absolute increase (% WT) [3, 6]: 35 % WT
Relative increase ([3]; 10 μM migalastat ÷ baseline): 1.91
10 μM migalastat α-Gal A activity [3, 7]: 28958 ± 3153 nmol/mg/h
10 μM migalastat α-Gal A activity (% WT) [3, 7]: 73.2 ± 8.8 % WT
Absolute increase (% WT) [4, 6]: 7.2 % WT
Relative increase ([4]; 10 μM migalastat ÷ baseline): 1.52
10 μM migalastat α-Gal A activity [4, 7]: 7749 ± 582 nmol/mg/h
10 μM migalastat α-Gal A activity (% WT) [4, 7]: 22.3 ± 2.4 % WT
Absolute increase (% WT) [5, 6]: 35.5 % WT
Relative increase ([5]; 10 μM migalastat ÷ baseline): 1.86
10 μM migalastat α-Gal A activity [5, 7]: 28621 ± 3141 nmol/mg/h
10 μM migalastat α-Gal A activity (% WT) [5, 7]: 79.8 ± 4.8 % WT
SMILES: OC[C@H]1NC[C@H](O)[C@@H](O)[C@H]1O [migalastat, (2R,3S,4R,5S)-2-(hydroxymethyl) piperdine-3,4,5-triol]

From US20230136297A1, “Methods Of Treating Fabry Disease In Patients Having A Mutation In The GLA Gene” (Amicus Therapeutics, Inc., priority 2020, published 2023)
